Our source for the Kd values is patent US12534469B2 (CHILDREN'S HOSPITAL MEDICAL CENTER, priority 2020, dated 2026).

The assay addresses T1, FLT3 D835V (Homo sapiens, UniProt P36888, D835V).
T1 construct: purchased DiscoverX (KINOMEscan); host or cells: E. coli (T7 phage) or HEK-293
T1 sequence (P36888 27-993 D835V): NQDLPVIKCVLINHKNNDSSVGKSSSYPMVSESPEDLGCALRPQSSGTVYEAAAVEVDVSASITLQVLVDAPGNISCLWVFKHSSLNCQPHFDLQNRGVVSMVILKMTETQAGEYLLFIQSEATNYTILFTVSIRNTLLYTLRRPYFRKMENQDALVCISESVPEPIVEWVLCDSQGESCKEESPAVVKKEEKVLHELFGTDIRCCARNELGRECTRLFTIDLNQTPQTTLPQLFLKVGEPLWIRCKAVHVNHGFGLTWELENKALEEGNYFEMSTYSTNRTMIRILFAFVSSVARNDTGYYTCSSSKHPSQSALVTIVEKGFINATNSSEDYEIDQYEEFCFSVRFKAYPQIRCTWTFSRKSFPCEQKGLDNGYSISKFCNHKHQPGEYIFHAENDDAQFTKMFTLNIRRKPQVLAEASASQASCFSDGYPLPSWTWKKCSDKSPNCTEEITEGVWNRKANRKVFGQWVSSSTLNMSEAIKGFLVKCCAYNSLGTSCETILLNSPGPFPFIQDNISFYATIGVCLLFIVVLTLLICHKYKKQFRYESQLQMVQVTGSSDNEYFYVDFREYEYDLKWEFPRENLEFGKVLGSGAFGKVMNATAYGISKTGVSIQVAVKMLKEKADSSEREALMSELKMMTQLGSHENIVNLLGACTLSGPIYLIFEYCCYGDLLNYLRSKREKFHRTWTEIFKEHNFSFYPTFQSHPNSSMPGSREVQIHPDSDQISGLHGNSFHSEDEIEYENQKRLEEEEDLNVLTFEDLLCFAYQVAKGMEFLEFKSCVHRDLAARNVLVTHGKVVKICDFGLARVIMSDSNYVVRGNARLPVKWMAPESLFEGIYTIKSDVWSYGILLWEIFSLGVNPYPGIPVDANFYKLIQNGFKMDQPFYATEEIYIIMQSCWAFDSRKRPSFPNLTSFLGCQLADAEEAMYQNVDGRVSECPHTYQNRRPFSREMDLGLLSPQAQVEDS
Put plainly: DiscoverX KINOMEscan competition binding assay, FLT3 D835V. An excerpt: Kinase binding data were obtained for various exemplary compounds prepared according to Examples 1-25 using the DiscoverX KINOMEscan® active site-directed competition binding site-directed assay protocol described below. […] As a result, the data report thermodynamic interaction affinities (Kd values), rather than IC50 values that are dependent on ATP concentrations. The assay uses a DNA-tagged version of the protein kinase, and an immobilized ligand bound to a solid support. Compounds that directly or indirectly prevent kinase binding to the immobilized ligand reduce the amount of kinase captured on the solid support, which is detected using an ultra-sensitive qPCR method. Affinity constants reported from the assay have been reported to be independent of the immobilized ligand used that is coupled to the solid support (See supplemental information in Fabian, M. A. et. al., (2005) Nat. Biotechnol. 23, 329-336; Wodicka, L. M. et. al., (2010) Chem. Biol. 17, 1241-1249.)
Kinase-tagged T7 phage strains were prepared in an E. coli host derived from the BL21 strain. E. coli were grown to log-phase and infected with T7 phage and incubated with shaking at 32° C. until lysis. The lysates were centrifuged and filtered to remove cell debris. The remaining kinases were produced in HEK-293 cells and subsequently tagged with DNA for qPCR detection. […] The liganded beads were blocked with excess biotin and washed with blocking buffer (SeaBlock (Pierce), 1% BSA, 0.05% Tween 20, 1 mM DTT) to remove unbound ligand and to reduce non-specific binding. […] Test compounds were prepared as 111× stocks in 100% DMSO. Kds were determined using an 11-point 3-fold compound dilution series with three DMSO control points. […] The compounds were then diluted directly into the assays such that the final concentration of DMSO was 0.9%. All reactions were performed in polypropylene 384-well plates. Each was a final volume of 0.02 mL. […] The kinase concentration in the eluates was measured by qPCR.
Binding constants (Kds) were calculated with a standard dose-response curve using the Hill equation. […]

With `COc1cc2ncc(-c3cccc(N[C@H]4CNC[C@@H]4F)n3)n2nc1C1CC1` [Compound 96, 6-(6-cyclopropyl-7-methoxyimidazo[1,2-b]pyridazin-3-yl)-N-((3S,4S)-4-fluoropyrrolidin-3-yl)pyridin-2-amine], the Kd stood at 0.12 nM.
For the compound `COc1cc2ncc(-c3cccc(N[C@@H]4CCNC4)n3)n2nc1C1CC1` [Compound 97, (R)-6-(6-cyclopropyl-7-methoxyimidazo[1,2-b]pyridazin-3-yl)-N-(pyrrolidin-3-yl)pyridin-2-amine], the Kd stood at 0.067 nM.
As for `COc1cc2ncc(-c3cccc(N[C@H]4CNCC[C@@H]4F)n3)n2nc1C1CC1` [Compound 102, 6-(6-cyclopropyl-7-methoxyimidazo[1,2-b]pyridazin-3-yl)-N-((3S,4S)-4-fluoropiperidin-3-yl)pyridin-2-amine], the figure is 0.11 nM.

A word on the Kd: it is the concentration at which binding is half-saturated.
